PubChem BioAssay AID2060907 (Molecular Pharmacology Branch, DTP, NCI, 2025)

System: 388556-164-R-J1-PDC complex spheroid viability
Test: Anticancer human tumor 388556-164-R-J1-PDC patient-derived colon adenocarcinoma cell line growth inhibition [RAS]
Details: for IC50: curve of first compound; for viability, T/C: stronger effect = lower value
How it was run: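 Agents were tested in combination matrices in half-log decrements from a top concentration at or near clinical Cmax (10 microM if undetermined). Targets were multi-cell spheroids of tumour lines plus HUVEC and MSC stromal cells.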

[1] = second compound 0.00316 µM, first compound 0.0316 µM
[2] = second compound 0.00316 µM, first compound 0.1 µM
[3] = second compound 0.00316 µM, first compound 0.316 µM
[4] = second compound 0.00316 µM, first compound 1 µM
[5] = second compound 0.01 µM, first compound 0.0316 µM
[6] = second compound 0.01 µM, first compound 0.1 µM
[7] = second compound 0.01 µM, first compound 0.316 µM
[8] = second compound 0.01 µM, first compound 1 µM
[9] = second compound 0.0316 µM, first compound 0.0316 µM
[10] = second compound 0.0316 µM, first compound 0.1 µM
[11] = second compound 0.0316 µM, first compound 0.316 µM
[12] = second compound 0.0316 µM, first compound 1 µM
[13] = second compound 0.1 µM, first compound 0.0316 µM
[14] = second compound 0.1 µM, first compound 0.1 µM
[15] = second compound 0.1 µM, first compound 0.316 µM
[16] = second compound 0.1 µM, first compound 1 µM
[17] = second compound 0.316 µM, first compound 0.0316 µM
[18] = second compound 0.316 µM, first compound 0.1 µM
[19] = second compound 0.316 µM, first compound 0.316 µM
[20] = second compound 0.316 µM, first compound 1 µM
[21] = second compound 1 µM, first compound 0.0316 µM
[22] = second compound 1 µM, first compound 0.1 µM
[23] = second compound 1 µM, first compound 0.316 µM
[24] = second compound 1 µM, first compound 1 µM
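Further: spheroids exposed to compound for 7 days before readout.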
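Wherever viability, T/C is given: 100% = DMSO vehicle control luminescence.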

## CC(=O)OC12COC1CC(O)C1(C)C(=O)C(O)C3=C(C)C(OC(=O)C(O)C(NC(=O)OC(C)(C)C)c4ccccc4)CC(O)(C(OC(=O)c4ccccc4)C21)C3(C)C (centres undefined) + C=CC(=O)N1CCN(c2nc(OCC3CCCN3C)nc3c(F)c(-c4nc(N)cc(C)c4C(F)(F)F)c(Cl)cc23)C(C)C1
Second compound 0.00316 µM
  IC50: > 10 µM
Second compound 0.01 µM
  IC50: > 10 µM
Second compound 0.0316 µM
  IC50: > 10 µM
Second compound 0.1 µM
  IC50: > 10 µM
Second compound 0.316 µM
  IC50: > 10 µM
Second compound 1 µM
  IC50: > 10 µM
[1]
  viability, T/C: 88.1%
[2]
  viability, T/C: 80.7%
[3]
  viability, T/C: 77%
[4]
  viability, T/C: 75.7%
Second compound 0.00316 µM, first compound 3.16 µM
  viability, T/C: 74.6%
Second compound 0.00316 µM, first compound 10 µM
  viability, T/C: 71.2%
[5]
  viability, T/C: 82.8%
[6]
  viability, T/C: 78.8%
[7]
  viability, T/C: 70.5%
[8]
  viability, T/C: 80.3%
Second compound 0.01 µM, first compound 3.16 µM
  viability, T/C: 79.4%
Second compound 0.01 µM, first compound 10 µM
  viability, T/C: 71.8%
[9]
  viability, T/C: 84.4%
[10]
  viability, T/C: 83.4%
[11]
  viability, T/C: 84.7%
[12]
  viability, T/C: 76.9%
Second compound 0.0316 µM, first compound 3.16 µM
  viability, T/C: 76%
Second compound 0.0316 µM, first compound 10 µM
  viability, T/C: 71.3%
[13]
  viability, T/C: 78.3%
[14]
  viability, T/C: 69.5%
[15]
  viability, T/C: 72.4%
[16]
  viability, T/C: 74%
Second compound 0.1 µM, first compound 3.16 µM
  viability, T/C: 78.4%
Second compound 0.1 µM, first compound 10 µM
  viability, T/C: 73.2%
[17]
  viability, T/C: 78.6%
[18]
  viability, T/C: 81.4%
[19]
  viability, T/C: 79.1%
[20]
  viability, T/C: 74.5%
Second compound 0.316 µM, first compound 3.16 µM
  viability, T/C: 72.7%
Second compound 0.316 µM, first compound 10 µM
  viability, T/C: 76.6%
[21]
  viability, T/C: 87.6%
[22]
  viability, T/C: 79.3%
[23]
  viability, T/C: 74.9%
[24]
  viability, T/C: 82.8%
Second compound 1 µM, first compound 3.16 µM
  viability, T/C: 76%
Second compound 1 µM, first compound 10 µM
  viability, T/C: 70.5%

## CCN1CCN(Cc2ccc(Nc3ncc(F)c(-c4cc(F)c5nc(C)n(C(C)C)c5c4)n3)nc2)CC1 + C=CC(=O)N1CCN(c2nc(OCC3CCCN3C)nc3c(F)c(-c4nc(N)cc(C)c4C(F)(F)F)c(Cl)cc23)C(C)C1
Second compound 0.00316 µM
  IC50: > 1 µM
Second compound 0.01 µM
  IC50: > 1 µM
Second compound 0.0316 µM
  IC50: > 1 µM
Second compound 0.1 µM
  IC50: > 1 µM
Second compound 0.316 µM
  IC50: > 1 µM
Second compound 1 µM
  IC50: > 1 µM
Second compound 0.00316 µM, first compound 0.00316 µM
  viability, T/C: 111%
Second compound 0.00316 µM, first compound 0.01 µM
  viability, T/C: 104%
[1]
  viability, T/C: 93.1%
[2]
  viability, T/C: 88.8%
[3]
  viability, T/C: 104%
[4]
  viability, T/C: 98.3%
Second compound 0.01 µM, first compound 0.00316 µM
  viability, T/C: 97.5%
Second compound 0.01 µM, first compound 0.01 µM
  viability, T/C: 101%
[5]
  viability, T/C: 93%
[6]
  viability, T/C: 95.6%
[7]
  viability, T/C: 96.2%
[8]
  viability, T/C: 89.4%
Second compound 0.0316 µM, first compound 0.00316 µM
  viability, T/C: 100%
Second compound 0.0316 µM, first compound 0.01 µM
  viability, T/C: 101%
[9]
  viability, T/C: 95.4%
[10]
  viability, T/C: 93%
[11]
  viability, T/C: 98.3%
[12]
  viability, T/C: 87.8%
Second compound 0.1 µM, first compound 0.00316 µM
  viability, T/C: 106%
Second compound 0.1 µM, first compound 0.01 µM
  viability, T/C: 105%
[13]
  viability, T/C: 90.3%
[14]
  viability, T/C: 88.9%
[15]
  viability, T/C: 91.5%
[16]
  viability, T/C: 84.5%
Second compound 0.316 µM, first compound 0.00316 µM
  viability, T/C: 105%
Second compound 0.316 µM, first compound 0.01 µM
  viability, T/C: 100%
[17]
  viability, T/C: 98.2%
[18]
  viability, T/C: 89.7%
[19]
  viability, T/C: 91.8%
[20]
  viability, T/C: 84.3%
Second compound 1 µM, first compound 0.00316 µM
  viability, T/C: 102%
Second compound 1 µM, first compound 0.01 µM
  viability, T/C: 104%
[21]
  viability, T/C: 100%
[22]
  viability, T/C: 93%
[23]
  viability, T/C: 79.7%
[24]
  viability, T/C: 94%
